In patent publication US9549886B2, “Personal care formulations containing alkyl ketal esters and methods of manufacture” (SEGETIS, INC., priority 2010, dated 2017):
Several values for one entry are separate records, joined by “and”; a condition that tells them apart may be missing. Equal entries are not always repeated. Blank lines part the entries; values can stand above or below the compound they belong to.

Assays:
[1] = Solubility of active agents in neat alkyl ketal esters (dissolution, storage at room temperature); conditions: for % solids dissolved in Et-LGK with heat, no precipitation / % solids dissolved in Et-LGK at room temperature, no precipitation / % solids in Et-LGK that did not (completely) dissolve or precipitated at room temperature: solvent Et-LGK; for % solids dissolved in Et-LGK with heat, no precipitation: dissolved at 35-80° C.; for % solids dissolved in Et-LGK with heat, no precipitation / % solids dissolved in Et-LGK at room temperature, no precipitation: still soluble after storage at room temperature (24 hours to 5 days) where stated; for % solids dissolved in Et-LPK with heat, no precipitation: dissolved at 50-80° C. or with heat, still soluble after storage at room temperature (24 hours to 5 days); for 50/50 mixture with Et-LGK / 50/50 mixture with Et-LPK: room temperature where stated; for % solids dissolved in Bu-LGK at room temperature, no precipitation: still soluble after 24 hours / 1 day at room temperature; for % solids in Et-LGK that did not (completely) dissolve or precipitated at room temperature / % solids in Et-LPK that did not (completely) dissolve or precipitated at room temperature / % solids in Bu-LGK that did not (completely) dissolve: insoluble; for % solids in Et-LGK that did not (completely) dissolve or precipitated at room temperature: partially dissolved or precipitated on room temperature storage; for % solids in Et-LPK that did not (completely) dissolve or precipitated at room temperature: not completely dissolved or precipitated on room temperature storage; for % solids in Bu-LGK that did not (completely) dissolve: dispersion or partially dissolved
[2] = Three-component miscibility test (mixing in a vial at room temperature and shaking, visual clarity)
Excerpt: The term “miscible” and its variations (“miscibility”, “compatibility”, and the like) are used herein as a synonym for “soluble”, i.e., a mixture of the materials by themselves form a “true” solution, in which one material is molecularly dispersed in the other, or in which one material is dispersed as droplets which have a longest dimension of less than 200 nm, such that the mixture is optically clear. […] A fully miscible alkyl ketal ester is soluble in another material, such as water, at all proportions from 99:1 to 1:99. A partially miscible alkyl ketal ester is immiscible in another material in proportions from greater than 30 parts of the alkyl ketal ester in 70 parts or less of the other material and miscible in other combinations. A sparingly miscible alkyl ketal ester is immiscible in another material or miscible in another material to the extent of less than 10 parts in 90 parts of the other material. […] Unless stated otherwise, miscibility is assessed at 25° C. […] By “macroscopically uniform,” it is meant that the formulation is uniform when viewed at a length scale of at least 10 micrometers.
In these tests, clear mixtures as observed without magnification from a distance of, e.g., 0.3 meters are considered to be “miscible,” whereas cloudy or phase separated mixtures are considered to be “immiscible.” […]
Three-component mixtures of ethyl-LGK, ethanol, and avobenzone were prepared by mixing the materials at various proportions at room temperature in a vial and shaking. […]
Three-component mixtures of ethyl-LGK, water, and oxybenzone were prepared by mixing the materials at various proportions at room temperature in a vial and shaking. […]
Three-component mixtures of Et-LGK, water, and phenoxyethanol were prepared by mixing the materials at various proportions at room temperature in a vial and shaking.
Three-component mixtures of N,N-diethyl-m-toluamide (DEET), ethyl-LGK, and water were prepared by mixing the materials at various proportions at room temperature in a vial and shaking.

[3] = Miscibility of alkyl ketal esters with water and organic compounds; assay type: physicochemical; conditions: for miscible with water / miscible with water to the extent of: 25° C. unless stated otherwise; for dissolves or is miscible with organic compounds to the extent of: organic compounds as listed in the block (alcohols, esters, oils, solvents), 80 parts of the ketal
Protocol: Unless stated otherwise, miscibility is assessed at 25° C.

[4] = Solubility of oxidation dye intermediates in hair dye bases (saturated solutions, UV-Vis); conditions: 27° C., 10 minutes

Structure (SMILES): Oc1ccc(O)cc1 [Hydroquinone]
% solids dissolved in Et-LGK with heat, no precipitation [1]: 5% | % solids dissolved in Et-LPK with heat, no precipitation ([1]; solvent Et-LPK): 10%

Structure (SMILES): CCN(CC)C(=O)c1cccc(C)c1 [DEET, N,N-diethyl-m-toluamide]
50/50 mixture with Et-LGK [1]: miscible | 50/50 mixture with Et-LPK [1]: miscible | solubility in ethanol and ethyl-LPK [2]: soluble | clarity of DEET / ethyl-LGK / water mixture ([2]; 26.7 parts of DEET, 60.5 parts of ethyl-LGK, 12.8 parts of water, room temperature): clear mixture

Structure (SMILES): CCCCCCC(O)CO (stereo not shown) [Caprylyl glycol]
% solids dissolved in Et-LGK at room temperature, no precipitation [1]: 15% and 20.8%

Structure (SMILES): COC(=O)CC1(C)OCC(CO)O1 (stereo not shown) [Me-AcAcGK]
miscible with water [3]: in all proportions

Structure (SMILES): Nc1ccc(N)cc1 [p-phenylenediamine]
% solids dissolved in Bu-LGK with heat, no precipitation ([1]; solvent Bu-LGK, dissolved at 50-80° C., still soluble after 24 hours at room temperature where stated): 5% | % solids in Bu-LGK that did not (completely) dissolve ([1]; solvent Bu-LGK): 25% | % solids dissolved in Et-LGK with heat, no precipitation [1]: 5% | % solids in Et-LPK that did not (completely) dissolve or precipitated at room temperature ([1]; solvent Et-LPK): 5% and 1% | Average Solubility % wt./wt., column 26B ([4]; hair dye base with 7.00% Et-LGK, pH 8.5): 0.07 % wt./wt. | Average Solubility % wt./wt., column 26A ([4]; hair dye base with 7.00% Et-LGK, pH 10.2): 0.07 % wt./wt. | Average Solubility % wt./wt., column 27B ([4]; hair dye base with 7.00% Et-LPK, pH 8.5): <0.01 % wt./wt. | Average Solubility % wt./wt., second column headed 26A ([4]; hair dye base with 7.00% Et-LPK, pH 10.2): 0 % wt./wt.

Structure (SMILES): COC1=C(OC)C(=O)C(C/C=C(\C)CC/C=C(\C)CC/C=C(\C)CC/C=C(\C)CC/C=C(\C)CC/C=C(\C)CC/C=C(\C)CC/C=C(\C)CC/C=C(\C)CCC=C(C)C)=C(C)C1=O [Coenzyme Q10, Ubiquinone]
% solids in Bu-LGK that did not (completely) dissolve ([1]; solvent Bu-LGK): 5% | % solids in Et-LGK that did not (completely) dissolve or precipitated at room temperature [1]: 3.7%

Structure (SMILES): O=C(CO)[C@H](O)CO [Erythrulose]
mixture with Bu-LGK at a ratio of 10/90 ([1]; room temperature): separated into distinct phases | mixture with Et-LPK at a ratio of 10/90 ([1]; room temperature): separated into distinct phases | mixture with Et-LGK at a ratio of 10/90 ([1]; room temperature, still soluble after 24 hours): clear uniform solution

Second part, led by results:

50/50 mixture with Bu-LGK ([1]; room temperature): soluble | 50/50 mixture with Et-LGK [1]: soluble | 50/50 mixture with Et-LPK [1]: soluble
Structure (SMILES): CCCCC(CC)COC(=O)C=Cc1ccc(OC)cc1 (stereo not shown) [octyl methoxycinnamate, Ethylhexyl methoxy cinnamate]

% solids dissolved in LEK with heat, no precipitation ([1]; after 2 weeks at room temperature): 37.5% | % solids that did not dissolve in ACAc-GK ([1]; room temperature): 31.9% | % solids that did not dissolve in methyl-LGK ([1]; room temperature): 14.9% | % solids that did not dissolve in propyl-LGK ([1]; room temperature): 17.8% | % solids dissolved in Bu-LGK at room temperature, no precipitation ([1]; solvent Bu-LGK): 10% | % solids dissolved in Et-LEK at room temperature ([1]; solvent Et-LEK): 28.5% | % solids dissolved in Et-LGK with heat, no precipitation [1]: 20% | % solids in Et-LGK that did not (completely) dissolve or precipitated at room temperature [1]: 25% | % solids dissolved in Et-LGK at room temperature, no precipitation [1]: 10% and 18% | % solids dissolved in Et-LPK with heat, no precipitation ([1]; solvent Et-LPK): 30% | % solids in Et-LPK that did not (completely) dissolve or precipitated at room temperature ([1]; solvent Et-LPK): 40% | maximum solubility in propyl-LGK [2]: 10-18% | upper limit of solubility in ethanol [2]: 6.5-10% | concentration achieved in a solution ([2]; Et-AcAc-GK as a cosolvent (with water)): ≤ 29% | concentration achieved in an ethanolic solution ([2]; Et-LEK as a cosolvent): ≤ 30% | concentration achieved in a solution ([2]; Methyl-LGK as a cosolvent (with water)): ≤ 10% | concentration achieved in a solution ([2]; alkyl ketal solvent mixture (Et-LGK and Et-LPK 80/20) as a cosolvent (with water)): ≤ 20% | concentration achieved in a water solution ([2]; ethyl-LGK as a cosolvent): ≤ 13% | concentration achieved in an ethanolic solution ([2]; ethyl-LGK as a cosolvent): ≤ 17% | concentration achieved in an ethanolic solution ([2]; ethyl-LPK as a cosolvent): ≤ 28% | level at which by itself immiscible in ethanol ([2]; no ketal): 10 % by weight | level at which by itself immiscible in water ([2]; no ketal): 1 % by weight
Structure (SMILES): COc1ccc(C(=O)c2ccccc2)c(O)c1 [oxybenzone, Oxybenzone]

miscible with water to the extent of [3]: 1 part per 99 parts water
Structure (SMILES): CCCCOC(=O)CCC1(C)OCC(CO)O1 (stereo not shown) [n-butyl-LGK]
dissolves or is miscible with organic compounds to the extent of [3]: at least 20 parts of the organic compound in 80 parts

level at which by itself immiscible in water ([2]; no ketal): 1 % by weight
Structure (SMILES): COC(=O)c1ccc(O)cc1 [methyl paraben, Methyl paraben]

miscible with water to the extent of [3]: 1 part per 99 parts water
Structure (SMILES): CCCOC(=O)CCC1(C)OCC(CO)O1 (stereo not shown) [n-propyl-LGK]

% solids dissolved in Bu-LGK at room temperature, no precipitation ([1]; solvent Bu-LGK): 20% | % solids dissolved in Et-LGK at room temperature, no precipitation [1]: 20% | % solids dissolved in Et-LPK at room temperature, no precipitation ([1]; solvent Et-LPK, still soluble after 24 hours / 1 day at room temperature where stated): 20%
Structure (SMILES): O=C(CCCCc1ccc2c(c1)OCO2)N1CCCCC1 [Tetrahydropiperine]

miscible with water [3]: in all proportions
Structure (SMILES): CCOC(=O)CCC1(C)OCC(CO)O1 (stereo not shown) [ethyl-LGK]
dissolves or is miscible with organic compounds to the extent of [3]: at least 20 parts of the organic compound in 80 parts
